According to article PMC10943399 (Heliyon, 2024):
Entries after “also recorded” stand apart in the source; their conditions may differ. Read-outs that look alike come from different tables or passages of the source.

What was measured:
[1] = system: P. falciparum Gombak A (CQ-resistant); test: pLDH antimalarial assay, P. falciparum Gombak A; type: cell-based, Plasmodium falciparum; conditions: for EC50: 48 h; for Selectivity Index (SI) (CC50MTT/EC50pLDH) P. falciparum Gombak A (CQ-resistant): Vero CC50 / Gombak A EC50
[2] = system: P. falciparum 3D7 (CQ-sensitive); test: pLDH antimalarial assay, P. falciparum 3D7; type: cell-based, Plasmodium falciparum; conditions: for Selectivity Index (SI) (CC50MTT/EC50pLDH) P. falciparum 3D7 (CQ-sensitive): Vero CC50 / 3D7 EC50; for antimalarial activity category against CQ-sensitive P. falciparum 3D7: category by EC50 range
P. knowlesi PKA1H1 = test: pLDH antimalarial assay, P. knowlesi A1H1; type: cell-based, Plasmodium knowlesi; conditions: for EC50: Plasmodium knowlesi, 24 h, read-out: P. knowlesi PKA1H1 EC50 (μM) ± SD; for Selectivity Index (SI) (CC50MTT/EC50pLDH) P. knowlesi PKA1H1: Vero CC50 / PKA1H1 EC50
Vero cell (Normal cell) = test: MTT cytotoxicity assay against Vero cells; type: cell-based; conditions: read-out: Vero cell (Normal cell) CC50 (μM) ± SD, 72 h, three independent experiments
zebrafish embryos [3] = test: Zebrafish embryo acute toxicity; type: in vivo, zebrafish (Danio rerio); conditions: for effect on early embryonic development: zebrafish embryos at 24 hpf
zebrafish larvae = test: Zebrafish cardiotoxicity; type: in vivo, zebrafish (Danio rerio); conditions: zebrafish larvae at 72 hpf
[4] = system: transgenic zebrafish line Tg(kdrl:egfp); test: Blood vessel formation in transgenic zebrafish Tg; type: in vivo, zebrafish (Danio rerio); conditions: 30 hpf
zebrafish embryos [5] = test: Spontaneous tail coiling; type: in vivo, zebrafish (Danio rerio); conditions: zebrafish embryos at 24 hpf, 6.25-50 μM, vs 0.1% DMSO
Solubility in egg water = type: physicochemical; conditions: zebrafish egg water
parasites = conditions: mice, dosage of 5 mg/kg, four days after treatment; cited from earlier work
[6] = Plasmodium falciparum, read-out: P. falciparum Gombak A (CQ-resistant) EC50 (μM) ± SD, pLDH assay, 48 h, three independent experiments
[7] = Plasmodium falciparum, 3D7, 48 h, read-out: P. falciparum 3D7 (CQ-sensitive) EC50 (μM) ± SD, pLDH assay, 48 h, three independent experiments
[8] = read-out: P. falciparum 3D7 (CQ-sensitive) EC50 (μM) ± SD, pLDH assay, 48 h, three independent experiments
[9] = zebrafish, 72 hpf, up to 200 μM
[10] = up to 200 μM, 2 h after treatment

SMILES: CCN(CC)CCCC(C)Nc1ccnc2cc(Cl)ccc12 (centres unmarked) [CQ, chloroquine, reference compound]
- EC50 [1, 6]: 5.56 ± 3.2 µM

SMILES: COc1cccc(C=CC(=O)C=Cc2cccc(OC)c2OC)c1OC [MS33A, 1,5-Bis(2,3-dimethoxyphenyl)penta-1,4-dien-3-one]
- Selectivity Index (SI) (CC50MTT/EC50pLDH) P. falciparum 3D7 (CQ-sensitive) [2]: 26.6
- antimalarial activity category against CQ-sensitive P. falciparum 3D7 [2]: active
- EC50 [1, 6]: 87.5 ± 0.9 µM
- Selectivity Index (SI) (CC50MTT/EC50pLDH) P. falciparum Gombak A (CQ-resistant) [1]: 1.0
- EC50 (P. knowlesi PKA1H1): 3.6 ± 0.2 µM
- Selectivity Index (SI) (CC50MTT/EC50pLDH) P. knowlesi PKA1H1 (P. knowlesi PKA1H1): 22.9
- CC50 (Vero cell (Normal cell)): 82.6 ± 1.7 µM
- effect on early embryonic development (zebrafish embryos [3]; 100 μM (not at 50 μM and lower)): gastrulation defects
- heart development (edema) (zebrafish embryos [3]; zebrafish, 72 hpf, 50 μM (not at 25 μM)): heart edema
- heart rate (zebrafish larvae; 12.5 μM): relatively normal
- heart rate (zebrafish larvae; 25 and 50 μM): decrease in heartbeats
- development of intersegmental vessels (ISVs) ([4]; 50 μM (not at 25 μM)): affected ISVs development; also recorded: inhibitory effects on ISV development
- mean STC activity (zebrafish embryos [5]): No significant change

SMILES: COc1ccc(OC)c(C=CC(=O)C=Cc2cc(OC)ccc2OC)c1 [MS33C, 1,5-Bis(2,5-dimethoxyphenyl)penta-1,4-dien-3-one]
- EC50 [2, 7]: < 5 µM
- Selectivity Index (SI) (CC50MTT/EC50pLDH) P. falciparum 3D7 (CQ-sensitive) [2]: 65.2
- antimalarial activity category against CQ-sensitive P. falciparum 3D7 [2]: active
- EC50 [2, 8]: 2.5 ± 0.4 µM
- EC50 [1, 6]: 56.2 ± 1.3 µM
- Selectivity Index (SI) (CC50MTT/EC50pLDH) P. falciparum Gombak A (CQ-resistant) [1]: 2.9
- EC50 (P. knowlesi PKA1H1): 5.1 ± 0.2 µM
- Selectivity Index (SI) (CC50MTT/EC50pLDH) P. knowlesi PKA1H1 (P. knowlesi PKA1H1): 32.0
- CC50 (Vero cell (Normal cell)): 163 ± 1.8 µM
- effect on early embryonic development (zebrafish embryos [3]; up to 200 μM): no significant effect
- morphological changes / heart development (zebrafish embryos [3]; [9]): no detectable morphological changes; also recorded: no effect on normal heart development
- heart rate (zebrafish larvae; [10]): no obvious abnormalities; also recorded: normal heart beats
- development of intersegmental vessels (ISVs) ([4]; up to 200 μM): no effect on normal vessel development; also recorded: no significant difference
- mean STC activity (zebrafish embryos [5]): No significant change

SMILES: COc1cccc(OC)c1C=CC(=O)C=Cc1c(OC)cccc1OC [MS33D, 1,5-Bis(2,6-dimethoxyphenyl)penta-1,4-dien-3-one]
- EC50 [2, 7]: 21.7 ± 0.8 µM
- Selectivity Index (SI) (CC50MTT/EC50pLDH) P. falciparum 3D7 (CQ-sensitive) [2]: 10.4
- EC50 [1, 6]: 74.4 ± 2.4 µM
- Selectivity Index (SI) (CC50MTT/EC50pLDH) P. falciparum Gombak A (CQ-resistant) [1]: 3.0
- EC50 (P. knowlesi PKA1H1): 23.7 ± 2.6 µM
- Selectivity Index (SI) (CC50MTT/EC50pLDH) P. knowlesi PKA1H1 (P. knowlesi PKA1H1): 9.5

SMILES: COc1cc(C=CC(=O)C=Cc2cc(OC)c(OC)c(OC)c2)cc(OC)c1OC [MS34C, 1,5-Bis(3,4,5-trimethoxyphenyl)penta-1,4-dien-3-one]
- Selectivity Index (SI) (CC50MTT/EC50pLDH) P. falciparum 3D7 (CQ-sensitive) [2]: 84.0
- antimalarial activity category against CQ-sensitive P. falciparum 3D7 [2]: active
- Selectivity Index (SI) (CC50MTT/EC50pLDH) P. falciparum Gombak A (CQ-resistant) [1]: 15.4
- EC50 (P. knowlesi PKA1H1): 11.8 ± 1.1 µM
- Selectivity Index (SI) (CC50MTT/EC50pLDH) P. knowlesi PKA1H1 (P. knowlesi PKA1H1): 11.4
- CC50 (Vero cell (Normal cell)): 134 ± 3.2 µM
- effect on early embryonic development (zebrafish embryos [3]; up to 200 μM): no significant effect
- morphological changes / heart development (zebrafish embryos [3]; [9]): no detectable morphological changes; also recorded: no effect on normal heart development
- heart rate (zebrafish larvae; [10]): no obvious abnormalities; also recorded: normal heart beats
- development of intersegmental vessels (ISVs) ([4]; up to 200 μM): no effect on normal vessel development; also recorded: no significant difference
- mean STC activity (zebrafish embryos [5]): No significant change

SMILES: O=C(C=Cc1cccc(Cl)c1)C=Cc1cccc(Cl)c1 [MS40B, 1,5-Bis(3-chlorophenyl)penta-1,4-dien-3-one]
- EC50 [2, 7]: 13.7 ± 0.8 µM
- Selectivity Index (SI) (CC50MTT/EC50pLDH) P. falciparum 3D7 (CQ-sensitive) [2]: 12.0
- antimalarial activity category against CQ-sensitive P. falciparum 3D7 [2]: active
- EC50 [1, 6]: 45.6 ± 1.3 µM
- Selectivity Index (SI) (CC50MTT/EC50pLDH) P. falciparum Gombak A (CQ-resistant) [1]: 3.6
- EC50 (P. knowlesi PKA1H1): 16.6 ± 0.5 µM
- Selectivity Index (SI) (CC50MTT/EC50pLDH) P. knowlesi PKA1H1 (P. knowlesi PKA1H1): 9.9

SMILES: O=C1C(=Cc2ccccc2Cl)CCCC1=Cc1ccccc1Cl [MS47, 2,6-Bis(2-chlorobenzylidene)cyclohexanone]
- EC50 [2, 7]: 16.1 ± 0.5 µM
- Selectivity Index (SI) (CC50MTT/EC50pLDH) P. falciparum 3D7 (CQ-sensitive) [2]: 10.6
- antimalarial activity category against CQ-sensitive P. falciparum 3D7 [2]: active
- EC50 [1, 6]: 51.4 ± 2.7 µM
- Selectivity Index (SI) (CC50MTT/EC50pLDH) P. falciparum Gombak A (CQ-resistant) [1]: 3.3
- EC50 (P. knowlesi PKA1H1): 21.7 ± 1.2 µM
- Selectivity Index (SI) (CC50MTT/EC50pLDH) P. knowlesi PKA1H1 (P. knowlesi PKA1H1): 7.9

SMILES: COc1cccc(C=C2CCCC(=Cc3cccc(OC)c3OC)C2=O)c1OC [MS69, 2,6-Bis(2,3-dimethoxybenzylidene)cyclohexanone]
- EC50 [2, 7]: > 500 µM
- EC50 [2, 8]: 785.8 ± 4.2 µM
- EC50 [1, 6]: 28.7 ± 2 µM
- EC50 (P. knowlesi PKA1H1): 324 ± 5.9 µM

SMILES: COc1ccc(C=C2CCCC(=Cc3ccc(OC)c(OC)c3OC)C2=O)c(OC)c1OC [MS72A, 2,6-Bis(2,3,4-trimethoxybenzylidene)cyclohexanone]
- EC50 [2, 7]: > 500 µM
- EC50 [2, 8]: 530 ± 3.6 µM
- EC50 [1, 6]: > 200 µM
- EC50 (P. knowlesi PKA1H1): 507.5 ± 1.3 µM

SMILES: COc1cc(C=C2CCCC(=Cc3cc(OC)c(OC)c(OC)c3)C2=O)cc(OC)c1OC [MS72C, 2,6-Bis(3,4,5-trimethoxybenzylidene)cyclohexanone]
- EC50 [2, 7]: > 500 µM
- EC50 [2, 8]: 515.1 ± 4.9 µM
- EC50 [1, 6]: > 200 µM
- EC50 (P. knowlesi PKA1H1): 430.1 ± 2.3 µM

SMILES: O=C1C(=Cc2ccccc2F)CCC1=Cc1ccccc1F [MS78, 2,5-Bis(2-fluorobenzylidene)cyclopentanone]
- EC50 [2, 7]: > 500 µM
- EC50 [2, 8]: 689.1 ± 4.2 µM
- EC50 [1, 6]: > 200 µM
- EC50 (P. knowlesi PKA1H1): 355 ± 7.1 µM

SMILES: O=C1C(=Cc2cccc(F)c2)CCC1=Cc1cccc(F)c1 [MS79, 2,5-Bis(3-fluorobenzylidene)cyclopentanone]
- EC50 [2, 7]: > 500 µM
- EC50 [2, 8]: 329.3 ± 2.6 µM
- EC50 [1, 6]: > 200 µM
- EC50 (P. knowlesi PKA1H1): 195 ± 2.7 µM

SMILES: COc1cc(C=C2CCC(=Cc3cc(OC)c(OC)c(OC)c3)C2=O)cc(OC)c1OC [MS87, 2,5-Bis(3,4,5-trimethoxybenzylidene)cyclopentanone]
- EC50 [2, 7]: 10.8 ± 1.3 µM
- Selectivity Index (SI) (CC50MTT/EC50pLDH) P. falciparum 3D7 (CQ-sensitive) [2]: 52.2
- antimalarial activity category against CQ-sensitive P. falciparum 3D7 [2]: active
- EC50 [1, 6]: 1.85 to 8.75 µM
- Selectivity Index (SI) (CC50MTT/EC50pLDH) P. falciparum Gombak A (CQ-resistant) [1]: 304.9
- EC50 ([1]; read-out: P. falciparum Gombak A (CQ-resistant) EC50 (μM) ± SD, pLDH assay, three independent experiments): 1.85 ± 2.8 µM
- EC50 (P. knowlesi PKA1H1): 11.4 ± 0.9 µM
- Selectivity Index (SI) (CC50MTT/EC50pLDH) P. knowlesi PKA1H1 (P. knowlesi PKA1H1): 49.5
- solubility in egg water (Solubility in egg water): problems with solubility in egg water

SMILES: COc1cc(/C=C/C(=O)CC(=O)/C=C/c2ccc(O)c(OC)c2)ccc1O [free curcumin, curcumin]
- suppression of parasites (parasites): 40.5%
